{"source": "paper PMC7442255", "about": "“Characterization of the Corynebacterium glutamicum dehydroshikimate dehydratase QsuB and its potential for microbial production of protocatechuic acid” (PLoS ONE, 2020)", "molecules": {"B1": {"name": "N-QsuB (Corynebacterium glutamicum ATCC 13032) (protein)", "chain": "MRTSIATVCLSGTLAEKLRAAADAGFDGVEIFEQDLVVSPHSAEQIRQRAQDLGLTLDLFQPFRDFEGVEEEQFLKNLHRLEEKFKLMNRLGIEMILLCSNVGTATINDDDLFVEQLHRAADLAEKYNVKIAYEALAWGKFVNDFEHAHALVEKVNHKALGTCLDTFHILSRGWETDEVENIPAEKIFFVQLADAPKLSMDILSWSRHHRVFPGEGDFDLVKFMVHLAKTGYDGPISLEIFNDSFRKAEVGRTAIDGLRSLRWLEDQTWHALNAEDRPSALELRALPEVAEPEGVDF"}}, "key": {"QsuB C-terminal domain": {"test_system": "QsuB C-terminal domain", "test": "Test of dioxygenase activity of the C-terminal domain towards 3,4-DHBA (UV spectrum)", "type": "biochemical, Corynebacterium glutamicum", "conditions": "pH 7.5, incubation with QsuB up to 60 min", "experimental": "An inhibition type and inhibition constants of the enzyme reaction were determined by a graphical method. The experimental data were plotted as (Vmax–v)/v versus the inhibitor concentration (0 ‒ 0.4 mM 3,4-DHBA) at 0.5/ 1/ 1.5 mM concentrations of DHS, where Vmax and v represented the maximal velocity and the velocity in the absence and presence of inhibitor with given concentrations of the substrate, respectively. The dioxygenase activity of the C-terminal domain was tested with the crude extracts in the reaction mixture of 0.1 M Tris/HCl buffer (pH 7.5), 10 mM MgCl2, 0.1 mM DHBA, and 30 nM of overall protein.\nThus, a possible activity of the C-terminal domain leading to conversion of 3,4-DHBA into another product was not detected under our experimental conditions."}, "QsuB": {"biological_target": "QsuB (Corynebacterium glutamicum, UniProt Q8NT86)", "sequence (Q8NT86 entry or part of it)": "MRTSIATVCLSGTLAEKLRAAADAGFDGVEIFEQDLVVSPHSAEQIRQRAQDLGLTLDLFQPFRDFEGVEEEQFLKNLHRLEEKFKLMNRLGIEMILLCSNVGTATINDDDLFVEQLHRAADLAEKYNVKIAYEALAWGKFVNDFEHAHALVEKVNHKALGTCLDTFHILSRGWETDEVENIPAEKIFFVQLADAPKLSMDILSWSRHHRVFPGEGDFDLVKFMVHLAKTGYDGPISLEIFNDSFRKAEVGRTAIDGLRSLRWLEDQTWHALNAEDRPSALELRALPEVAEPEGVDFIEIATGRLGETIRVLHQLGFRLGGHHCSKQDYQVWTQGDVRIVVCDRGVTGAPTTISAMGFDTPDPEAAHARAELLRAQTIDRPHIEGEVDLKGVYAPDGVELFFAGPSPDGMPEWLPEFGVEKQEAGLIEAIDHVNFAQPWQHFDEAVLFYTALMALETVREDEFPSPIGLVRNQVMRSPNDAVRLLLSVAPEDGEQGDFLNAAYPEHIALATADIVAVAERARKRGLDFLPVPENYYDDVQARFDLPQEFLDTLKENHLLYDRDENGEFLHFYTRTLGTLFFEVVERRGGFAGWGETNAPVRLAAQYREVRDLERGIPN", "test": "DSD activity assay of purified QsuB (3,4-DHBA formation at 290 nm)", "type": "biochemical"}, "N-QsuB": {"biological_target": "N-QsuB (Corynebacterium glutamicum, UniProt Q8NT86)", "test": "DSD activity assay of purified N-QsuB (N-terminal domain of QsuB)", "type": "biochemical"}, "C. glutamicum": {"test_system": "C. glutamicum", "conditions": "cited from earlier work"}, "E. coli": {"test_system": "E. coli", "conditions": "cited from earlier work"}, "AsbF B. t. 97-27": {"test_system": "AsbF B. t. 97-27", "parameters": "method as in PMID 18975921", "conditions": "pH 8.6, 37°C ref [12], cited from earlier work"}, "QuiC1": {"test_system": "QuiC1", "parameters": "method as in PMID 27706847", "conditions": "cited from earlier work"}, "[1]": {"biological_target": "N-QsuB, N-terminal domain of QsuB (Corynebacterium glutamicum)", "test": "SEC; Superose 6 Increase 10/300 GL; 50 mM sodium phosphate (pH 7.0), 150 mM NaCl; 0.5 ml/min; A280; mass from a calibration curve of standard proteins; self-association of N-QsuB"}, "[2]": {"biological_target": "QsuB, dehydroshikimate dehydratase (DSD) from Corynebacterium glutamicum (Corynebacterium glutamicum)", "test": "SEC; Superose 6 Increase 10/300 GL; 50 mM Tris-HCl (pH 7.5), 500 mM NaCl, 5% v/v glycerol; 0.4 ml/min; A280; mass from a calibration curve of standard proteins; self-association of QsuB"}, "[3]": {"substrate": "O=C(O)C1=CC(=O)C(O)C(O)C1", "test": "DSD activity assay of purified N-QsuB (N-terminal domain of QsuB)", "type": "biochemical, Corynebacterium glutamicum", "conditions": "other: N-QsuB, pH 7.5, 20°C"}, "[4]": {"conditions": "QsuB, 1 mM DHS, 10 mM metal salt, normalized against cobalt"}, "[5]": {"conditions": "N-QsuB, 1 mM DHS, 10 mM metal salt, normalized against cobalt"}}, "note": "Several values for one entry are separate records, joined by “and”; a condition that tells them apart may be missing. Equal entries are not always repeated. Where two headings read alike, the source gives them in different places.", "data": [{"molecule": "O=C(O)c1ccc(O)c(O)c1", "note": "[3,4-DHBA, 3,4-dihydroxybenzoic acid]", "values": [{"measurement": "conversion of 3,4-DHBA (change of UV spectrum)", "setting": "QsuB C-terminal domain", "result": "no difference in the UV spectrum was observed"}, {"measurement": "inhibition type", "setting": "QsuB; QsuB, quotient velocity plot", "result": "mix inhibition type"}, {"measurement": "Ki' (binding to the enzyme-substrate complex)", "setting": "QsuB; QsuB, quotient velocity plot, 0.5/1/1.5 mM DHS", "result": "~ 0.96 mM"}, {"measurement": "Ki", "setting": "QsuB; QsuB, quotient velocity plot, 0.5/1/1.5 mM DHS, read-out: Ki (binding to the enzyme)", "result": "~380", "unit": "µM"}, {"measurement": "inhibition type", "setting": "N-QsuB; N-QsuB, quotient velocity plot", "result": "noncompetitive inhibition"}, {"measurement": "Ki", "setting": "N-QsuB; N-QsuB, quotient velocity plot, 0.5/1/1.5 mM DHS, read-out: Ki (binding to the enzyme)", "result": "~690", "unit": "µM"}]}, {"molecule": "[Cl-].[Cl-].[Co+2]", "note": "[Co, CoCl2]", "values": [{"measurement": "Co^2+ concentration at which growth is possible", "setting": "C. glutamicum", "result": 2, "unit": "mM"}, {"measurement": "Specific activity (relative DSD activity with divalent metal)", "setting": "QsuB", "result": 100, "unit": "%"}, {"measurement": "Co^2+ concentration tolerated", "setting": "E. coli", "result": "< 1", "unit": "mM"}, {"measurement": "Specific activity (relative DSD activity with divalent metal)", "setting": "N-QsuB", "result": 100, "unit": "%"}]}, {"molecule": "O=C(O)C1=CC(=O)C(O)C(O)C1", "note": "(stereo not shown) [DHS, 3-dehydroshikimic acid]", "values": [{"measurement": "Km", "setting": "AsbF B. t. 97-27; read-out: Km (DHS)", "result": "125 ± 14", "unit": "µM"}, {"measurement": "kcat", "setting": "AsbF B. t. 97-27; substrate DHS", "result": "3.6 ± 0.2", "unit": "s⁻¹"}, {"measurement": "Km", "setting": "QuiC1; QuiC1, pH 7.5, 25°C ref [15], read-out: Km (DHS)", "result": "331 ± 51", "unit": "µM"}, {"measurement": "kcat", "setting": "QuiC1; QuiC1, substrate DHS, pH 7.5, 25°C ref [15]", "result": "163.6 ± 8.5", "unit": "s⁻¹"}, {"measurement": "kcat", "setting": "QsuB; QsuB, substrate DHS, pH 7.5, 20°C", "result": "60.8 ± 0.9", "unit": "s⁻¹"}, {"measurement": "IC50", "setting": "QsuB; QsuB, substrate inhibition, calculated from data of Fig 6, read-out: IC50 (decrease of DSD activity by substrate DHS)", "result": "~4200", "unit": "µM"}, {"measurement": "IC50", "setting": "N-QsuB; N-QsuB, substrate inhibition, calculated from data of Fig 6, read-out: IC50 (decrease of DSD activity by substrate DHS)", "result": "~5500", "unit": "µM"}]}, {"molecule": "O=C(O)CN(CCN(CC(=O)O)CC(=O)O)CC(=O)O", "note": "[EDTA]", "values": [{"measurement": "effect on DSD activity without added metal ions", "setting": "QsuB", "result": "inhibited"}, {"measurement": "effect on DSD activity without added metal ions", "setting": "N-QsuB", "result": "inhibited"}]}, {"molecule": "[Cl-].[Cl-].[Mg+2]", "note": "[Mg, MgCl2]", "values": [{"measurement": "Specific activity (relative DSD activity with divalent metal)", "setting": "QsuB; [4]", "result": 24, "unit": "%"}, {"measurement": "Specific activity (relative DSD activity with divalent metal)", "setting": "N-QsuB; [5]", "result": 22, "unit": "%"}]}, {"molecule": "[Cl][Mn][Cl]", "note": "[Mn, MnCl2]", "values": [{"measurement": "Specific activity (relative DSD activity with divalent metal)", "setting": "QsuB; [4]", "result": 17, "unit": "%"}, {"measurement": "Specific activity (relative DSD activity with divalent metal)", "setting": "N-QsuB; [5]", "result": 21, "unit": "%"}]}, {"molecule": "N-QsuB, N-terminal domain of QsuB (domain or fragment)", "values": [{"measurement": "stoichiometry N", "setting": "[1]", "result": 2}]}, {"molecule": "QsuB, dehydroshikimate dehydratase (DSD) from Corynebacterium glutamicum (enzyme)", "values": [{"measurement": "percent present as monomers", "setting": "[2]", "result": 15, "unit": "%"}, {"measurement": "percent present as octamers", "setting": "[2]", "result": 60, "unit": "%"}, {"measurement": "percent present as tetramers", "setting": "[2]", "result": 25, "unit": "%"}, {"measurement": "stoichiometry N", "setting": "[2]", "result": "8 and 4"}]}, {"molecule": "B1", "values": [{"measurement": "Km", "setting": "[3]", "result": "473 ± 71", "unit": "µM"}, {"measurement": "kcat", "setting": "[3]", "result": "23.4 ± 0.4", "unit": "s⁻¹"}, {"measurement": "kcat/Km", "setting": "[3]", "result": "49500 ± 5600", "unit": "M⁻¹ s⁻¹"}]}]}
